Measured values as given in paper PMC11413853, “Discovery of VU6007496: Challenges in the Development of an M1 Positive Allosteric Modulator Backup Candidate” (ACS Chemical Neuroscience, 2024).
pEC50, pIC50: −log10 of the molar value. Like-named read-outs stand apart in the source and are kept apart here.

Experiments:
CYP3A4 = CYP3A4 (Homo sapiens, UniProt P08684); assay: CYP inhibition, 3A4; assay type: in vitro ADME
[1] = Predicted hepatic clearance, rat hepatic microsomes; assay type: in vitro ADME
Protocol: Intrinsic clearance: Human or rat hepatic microsomes (0.5 mg/mL) and 1 µM test compound were incubated in 100 mM potassium phosphate pH 7.4 buffer with 3 mM MgCl2 at 37 °C with constant shaking. After a 5 min preincubation, the reaction was initiated by the addition of NADPH (1 mM). At selected time intervals (0, 3, 7, 15, 25, and 45 min), aliquots were taken and subsequently placed into a 96-well plate containing cold acetonitrile with internal standard (50 ng/mL carbamazepine). Plates were then centrifuged at 3000 rcf (4 °C) for 10 min, and the supernatant was transferred to a separate 96-well plate and diluted 1:1 with water for LC/MS/MS analysis. The in vitro half-life ( 1/2, min, Eq. 1), intrinsic clearance (CLint, mL/min/kg, Eq. 2), and subsequent predicted hepatic clearance (CLhep, mL/min/kg, Eq. 3) was determined employing the […]
where k represents the slope from linear regression analysis of the natural log percent remaining of a test compound as a function of incubation time […]
(2) CLint = in vitroT1/2 x mg microsomes x gram liver x kg body wt ascale-up factors: of 20 (human) or 45 (rat) […]
where Qh (hepatic blood flow, mL/min/kg) is 21 (human) or 70 (rat).
LC/MS/MS Bioanalysis of Samples from Plasma Protein Binding and Intrinsic Clearance […]
Samples were analyzed on a Thermo Electron TSQ Quantum Ultra triple quad mass spectrometer (San Jose, CA) via electrospray ionization (ESI) with two Themo Electron Accella pumps (San Jose, CA), and a Leap Technologies CTC PAL autosampler (Carrboro, NC). Analytes were separated by gradient elution on a dual column system with two Thermo Hypersil Gold (2.1 x 30 mm, 1.9 µm) columns (San Jose, CA) thermostated at 40 °C. HPLC mobile phase A was 0.1% formic acid in water and mobile phase B was 0.1% formic acid in acetonitrile. The gradient started […]
for 0.2 min; returned to 10% B in 0.1 min. The total run time was 1.3 min and the HPLC flow rate was 0.8 mL/min. […]

CYP2D6 = CYP2D6 (Homo sapiens, UniProt P10635); assay: CYP inhibition, 2D6; assay type: in vitro ADME
Sequence of CYP2D6 (P10635 whole entry): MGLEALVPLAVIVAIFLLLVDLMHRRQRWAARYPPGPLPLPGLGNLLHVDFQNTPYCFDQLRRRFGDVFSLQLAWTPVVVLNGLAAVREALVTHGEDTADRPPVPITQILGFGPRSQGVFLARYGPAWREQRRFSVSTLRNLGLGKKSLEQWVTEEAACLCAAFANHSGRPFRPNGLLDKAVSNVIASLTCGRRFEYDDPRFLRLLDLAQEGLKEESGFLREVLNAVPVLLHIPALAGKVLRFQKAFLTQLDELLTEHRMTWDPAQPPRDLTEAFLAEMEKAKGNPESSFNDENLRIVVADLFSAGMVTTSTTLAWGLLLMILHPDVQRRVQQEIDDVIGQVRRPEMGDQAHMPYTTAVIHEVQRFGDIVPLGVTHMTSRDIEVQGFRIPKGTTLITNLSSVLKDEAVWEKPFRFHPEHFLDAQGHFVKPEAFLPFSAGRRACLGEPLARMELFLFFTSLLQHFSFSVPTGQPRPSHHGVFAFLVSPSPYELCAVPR

rM2-5 = assay: Muscarinic selectivity, rat M2-5; assay type: cell-based
P-gp = system: T1, P-gp; assay: MDCK-MDR1 P-gp efflux and permeability; assay type: in vitro ADME; set-up: efflux ratio at 2 h / Papp at 2 h: dose or concentration left out as unconfirmed; conditions: for P-gp ER / efflux ratio at 2 h: MDCK-MDR1 efflux ratio; for Papp at 2 h / efflux ratio at 2 h: dog; for Papp at 2 h: MDCK-MDR1; for efflux ratio at 2 h: read-out: P-gp ER
T1 construct: host or cells: MDR1-MDCK cell monolayers
Protocol: In-vitro determination of blood-brain barrier penetration potential
Blood-brain barrier penetration was determined using MDR1-MDCK cell monolayers by Absorption Systems, following their protocol. In short, compounds were incubated […] final […]
concentration on one side of the cell monolayer for 2 hours. Compounds concentration on either side of the monolayer was determined by LC-MS/MS and apparent permeability and efflux ratio

rat M1 = molecular target: T2, rat M1 (Rattus norvegicus, UniProt P08482); assay: Calcium mobilization assay, rat M1 (agonist and PAM modes); assay type: cell-based; conditions: for rM1 PAM AChmax (%) / rM1 Agonist AChmax (%): % ACh max
T2 construct: expressed in transfected cells; host or cells: CHO (stated in general for all functional cell-based assays)
T2 sequence (P08482 1-460): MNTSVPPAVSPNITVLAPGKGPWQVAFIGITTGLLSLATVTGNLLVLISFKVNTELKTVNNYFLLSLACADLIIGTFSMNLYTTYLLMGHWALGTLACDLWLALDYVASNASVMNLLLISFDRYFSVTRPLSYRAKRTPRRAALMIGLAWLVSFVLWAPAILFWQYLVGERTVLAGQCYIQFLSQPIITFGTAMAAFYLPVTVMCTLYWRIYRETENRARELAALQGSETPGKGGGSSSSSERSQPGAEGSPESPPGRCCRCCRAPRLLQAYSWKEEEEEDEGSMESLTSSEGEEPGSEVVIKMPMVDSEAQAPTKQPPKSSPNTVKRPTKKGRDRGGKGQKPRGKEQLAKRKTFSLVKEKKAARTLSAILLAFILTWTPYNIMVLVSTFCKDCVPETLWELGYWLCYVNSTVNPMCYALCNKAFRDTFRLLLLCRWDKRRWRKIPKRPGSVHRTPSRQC

[2] = PAM mode, read-out: rM1 PAM EC50
[3] = agonist mode, read-out: rM1 Agonist EC50

Sequence of CYP3A4 (P08684 whole entry): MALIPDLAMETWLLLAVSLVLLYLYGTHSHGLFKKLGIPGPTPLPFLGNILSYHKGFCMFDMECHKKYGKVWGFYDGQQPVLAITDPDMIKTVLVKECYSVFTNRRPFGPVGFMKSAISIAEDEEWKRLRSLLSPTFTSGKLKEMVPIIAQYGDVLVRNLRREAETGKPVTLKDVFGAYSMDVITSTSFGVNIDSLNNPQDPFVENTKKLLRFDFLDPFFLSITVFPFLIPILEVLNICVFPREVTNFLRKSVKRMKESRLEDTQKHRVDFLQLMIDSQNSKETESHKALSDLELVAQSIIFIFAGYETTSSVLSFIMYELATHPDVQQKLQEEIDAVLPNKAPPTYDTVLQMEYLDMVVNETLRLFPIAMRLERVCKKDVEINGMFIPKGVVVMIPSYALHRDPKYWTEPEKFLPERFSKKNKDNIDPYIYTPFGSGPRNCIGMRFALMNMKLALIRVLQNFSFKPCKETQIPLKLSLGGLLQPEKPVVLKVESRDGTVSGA

Row | pEC50 (rat M1; agonist mode, read-out: rat M1 agonism EC50) | SMILES | pIC50 (CYP3A4) | Predicted CLhep, rat [1] | pIC50 (CYP2D6) | pEC50 (rM2-5) | P-gp ER (P-gp) | Papp at 2 h (P-gp) | efflux ratio at 2 h (P-gp) | rM1 PAM AChmax (%) (rat M1; PAM mode) | pEC50 (rat M1; [2]) | rM1 Agonist AChmax (%) (rat M1; agonist mode) | pEC50 (rat M1; [3]) | activity on rat M2–5 (rM2-5)
1 |  | Cn1ccc(-c2ccc(Cc3cc(C(=O)NC4CCOCC4)nc4ccn(C)c34)cc2)n1 [compound 11] | < 4.52 | 38 mL/min/kg | < 4.52 | < 4.52 | 3.5 | 12.8 ×10⁻⁶ cm/s | 3.5 | 91% | 7.03 | 36% | 5.13 | 
2 |  | Cn1ccc(-c2ccc(Cc3cc(C(=O)NC4CCOCC4)nc4ccsc34)cc2)n1 [compound 12] | < 4.52 | 33 mL/min/kg | < 4.52 | < 4.52 | 0.8 | 26.8 ×10⁻⁶ cm/s | 0.8 | 90% | 7.20 | 32% | 5.36 | 
3 | 5.51 | Cn1ccc2nc(C(=O)NC3CCOCC3)cc(Cc3ccc(-c4cc[nH]n4)cc3)c21 [compound 24] | 5.24 | 44 mL/min/kg | < 4.52 |  |  | 2 ×10⁻⁶ cm/s | 31.9 | 89% | 7.25 | 48% |  | inactive
